Data published in US20010046498A1, “Chimeric prostate-homing peptides with pro-apoptotic activity” (priority 2000, published 2001).
Where two headings read alike, the source gives them in different places. Bridge positions count the residues as written; N and C are the ends. Square brackets hold non-standard residues; d marks the D form. Peptide text beside a SMILES is read from it.

How the values were obtained:
KS1767 cells = assay: LC50 for KS1767 cells scored by apoptotic morphology; format: cell-based; settings: proliferating KS1767 cells; read-out: LC50 KS1767 Prolif.
Method: (§1) Briefly, dermal microvessel endothelial cells (DMECs) were grown in CADMEC Growth Media™ (Cell Applications, Inc.; San Diego, Calif.). Dermal microvessel endothelial cells were then cultured under three experimental conditions: proliferation, 30% confluency in a growth media supplemented with 500 ng/ml human recombinant vascular endothelial growth factor (VEGF; Pharmingen); no proliferation, 100% confluency in media formulated to maintain a monolayer; and cord formation, 60% confluency (required for induction) in media formulated to induce cord formation. The KS1767 and MDA-MB-435 cells were cultured as described in Arap et al., supra, 1998; Hernier et al., supra, 1994).
(§2) Percent viability and LC50 (Table 1) were determined by apoptotic morphology as described in Ellerby et al., J. Neurosci. 17:6165-6178 (1997). For the percent viability assays, dermal microvessel endothelial cells were treated with 60 μM HPP-1 or control peptide D(KLAKLAK)2. At the indicated time points, cell culture medium was aspirated from adherent cells, and the cells were gently washed once with PBS at 37° C. […] At least 500 cells were scored for a given time point in each experiment. Percent viability was calculated relative to untreated controls. The LC50 for monolayer, proliferation (60% confluency), and cord formation were scored at 72 hours.

[1] = system: normal human dermal microvessel endothelial cells (DMECs); format: cell-based; design: dose or concentration left out as unconfirmed; settings: proliferation or cord formation
[2] = system: caspase activation in dermal microvessel endothelial cells; assay: Caspase activity (DEVD-pNA hydrolysis) in DMEC lysates; format: cell-based, human; settings: proliferating DMECs
Method: Characteristic caspase-3 processing was measured in dermal microvessel endothelial cell lysates as described in Ellerby et al., supra, 1997. Briefly, aliquots of cell lysates (1 μl lysate, 8-15 mg/ml) were added to 100 μM N-acetyl-Asp-Glu-Val-Asp-pNA (DEVD-pNA; BioMol; 100 μl, 100 mM HEPES, 10% sucrose, 0.1% CHAPS, 1 mM DTT, pH 7.0). Hydrolysis of DEVD-PNA was monitored spectrophotometrically (400 nm) at 25° C.

[3] = system: tumors derived from the human melanoma cell line C8161; assay: Treatment of nude mice bearing C8161 melanoma xenografts; format: in vivo; settings: similar experiments
Method: (§3) The activity of HPP-1 was tested in vivo using nude mice bearing human MDA-MD-435 breast carcinoma xenografts as follows. Briefly, MDA-MB-435 and C8161-derived tumor xenografts were established in 2 month-old female nude mice (Jackson Labs; Bar Harbor, Me.) as described in Arap et al., supra, 1998. After mice were anesthetized with a mixture of 2,2,2-tribromoethanol (Aldrich; Milwaukee, Wis.) and 2-methyl-butanol (Aldrich) prepared in distilled water, peptides were administered intravenously through the tail vein at a dose of 250 μg/week/mouse given slowly in a volume of 200 μl. Three-dimensional measurements of tumors were taken by caliper under anesthesia and used to calculate tumor volume (Pasqualini et al., supra, 1996).

in vitro = format: cell-based; settings: human; monolayer at 100% confluency; scored at 72 hours; means of three independent experiments; read-out: LC50 DMEC Angiostatic
Method: (§4) The effect of HPP-1 was assayed on normal human dermal microvessel endothelial cells (DMECs) under the angiogenic conditions of proliferation and cord formation. In addition, the effect of HPP-1 was assayed under the angiostatic condition of a monolayer maintained at 100% confluency (as described below).
as §1
as §2, with “C. Subsequently, a 20-fold dilution of the dye mixture (100 μg/ml acridine orange and 100 μg/ml ethidium bromide) in PBS was gently pipetted on the cells, which were viewed on an inverted microscope (Nikon TE 300).” for “C.”

[4] = system: normal human dermal microvessel endothelial cells (DMECs); assay: in vitro; format: cell-based; settings: for CC50: scored at 72 hours
Method: as §4, §1
as §2, with “C. Subsequently, a 20-fold dilution of the dye mixture (100 μg/ml acridine orange and 100 μg/ml ethidium bromide) in PBS was gently pipetted on the cells, which were viewed on an inverted microscope (Nikon TE 300).” for “C.”

[5] = system: human MDA-MD-435 breast carcinoma xenografts; assay: Treatment of nude mice bearing breast carcinoma xenografts; format: in vivo
Method: as §3

[6] = system: MDA-MB-435 human breast carcinoma cells; assay: LC50 for MDA-MB-435 cells scored by apoptotic morphology; format: cell-based
Method: as §1, §2

[7] = system: dermal microvessel endothelial cells; assay: Mitochondrial morphology of proliferating DMECs (MitoTracker Red / DAPI); format: cell-based, human; settings: 60 μM peptide
Method: Mitochondrial morphology of dermal microvessel endothelial cells was assessed in proliferating cells after treatment with 60 μM HPP-1, […]-GG-D(KLAKLAK)2 or untargeted D(KLAKLAK)2 as follows. Dermal microvessel endothelial cells were stained after 24 and 72 hours treatment with peptide by incubation for 30 min at 37° C. with 100 nM mitochondrial stain MitoTracker Red™ (Molecular Probes, Inc., Eugene Oreg.) and 500 nM of the nuclear stain DAPI (Molecular Probes, Inc.). Mitochondria were subsequently visualized using fluorescence microscopy (100×) under an inverted microscope using a triple wavelength filter set (Nikon).

tumor = assay: Competition of GSL phage homing by free peptide; design: species or system mice; settings: mouse, in vivo
Text: A third motif, GSL (glycine-serine-leucine), also was identified following in vivo panning in mice bearing breast carcinoma, malignant melanoma or Kaposi's sarcoma. Homing of phage expressing the GSL peptide, CGSLVRC (SEQ ID NO: 5), was inhibited by coadministration of the free CGSLVRC (SEQ ID NO: 5) peptide. Like the RGD and NGR peptides, phage expressing GSL peptides also bound to blood vessels of tumors. In view of the identification of the conserved RGD, NGR and GSL motifs present in tumor homing peptides, as disclosed herein, it will be recognized that peptides containing such motifs can be useful as tumor homing peptides and, in particular, for forming homing pro-apoptotic conjugates that can selectively deliver an […] peptide to a tumor.

[8] = 250 μg/week/mouse intravenously

## CC(C)C[C@@H](NC(=O)[C@@H](CCCCN)NC(=O)CNC(=O)CNC(=O)[C@@H]1CSSC[C@H](N)C(=O)N[C@@H](CC(N)=O)C(=O)NCC(=O)N[C@@H](CCCNC(=N)N)C(=O)N1)C(=O)N[C@H](C)C(=O)N[C@H](CCCCN)C(=O)N[C@H](CC(C)C)C(=O)N[C@H](C)C(=O)N[C@H](CCCCN)C(=O)N[C@H](CCCCN)C(=O)N[C@H](CC(C)C)C(=O)N[C@H](C)C(=O)N[C@H](CCCCN)C(=O)N[C@H](CC(C)C)C(=O)N[C@H](C)C(=O)N[C@H](CCCCN)C(=O)O [HPP-1, CNGRC-GG-D(KLAKLAK)2] (H-CNGRCGG[dK][dL][dA][dK][dL][dA][dK][dK][dL][dA][dK][dL][dA][dK]-OH; disulfide 1-5)
KS1767 cells
  CC50: 42 µM
[1]
  percent viability with time relative to untreated controls: decrease in percent viability with time
[2]
  apoptotic cell death by caspase activity: Apoptotic cell death was confirmed
[3]
  effect against C8161 melanoma tumors: effective
In vitro
  CC50 at 72 h: 481 µM
[4]; angiogenic versus angiostatic conditions
  LC50 for proliferating or migrating DMECs relative to LC50 for angiostatic DMECs: an order of magnitude lower
[4]; cord formation, read-out: LC50 DMEC Angiogenic Cord Form
  CC50: 34 µM
[4]; proliferation with VEGF, read-out: LC50 DMEC Angiogenic Prolif.
  CC50: 51 µM
[5]; [8]
  histopathological analysis of tumors: pronounced destruction of tumor architecture and widespread cell death
  survival versus control groups: survival was longer
  tumor volume versus controls: smaller, on average by one order of magnitude
[5]; histopathological analysis
  apoptotic cell death in tumors: about 50%
[6]
  toxicity to MDA-MB-435 cells relative to KS1767 cells and angiogenic DMECs: less toxic to MDA-MB-435 human breast carcinoma cells by approximately one order of magnitude
[6]; proliferating MDA-MB-435 cells, read-out: LC50 MDA-MB-435 Prolif.
  CC50: 415 µM
[7]; 72 hours
  morphological indicators of apoptosis (nuclear condensation and fragmentation): exhibited the classic morphological indicators of apoptosis
[7]; proliferating cells, before the cells rounded-up
  cells with altered mitochondrial morphology: approximately 80%

## CGSLVRC [GSL tumor homing peptide]
tumor
  effect of coadministered free peptide on homing of CGSLVRC phage: inhibited
